Data: ChEMBL document CHEMBL3286266, “Development of novel benzomorpholine class of diacylglycerol acyltransferase I inhibitors” (ACS Med Chem Lett, 2014)
Converted amounts (≈) assume the structure as drawn.

Columns and labels:
[1] = target: T1, Sterol O-acyltransferase 2 (Homo sapiens, UniProt O75908); assay: Inhibition of human ACAT2 expressed in Sf9 insect cells using [14C]-oleoyl-CoA by scintillation counting analysis
T1 sequence (O75908 whole entry): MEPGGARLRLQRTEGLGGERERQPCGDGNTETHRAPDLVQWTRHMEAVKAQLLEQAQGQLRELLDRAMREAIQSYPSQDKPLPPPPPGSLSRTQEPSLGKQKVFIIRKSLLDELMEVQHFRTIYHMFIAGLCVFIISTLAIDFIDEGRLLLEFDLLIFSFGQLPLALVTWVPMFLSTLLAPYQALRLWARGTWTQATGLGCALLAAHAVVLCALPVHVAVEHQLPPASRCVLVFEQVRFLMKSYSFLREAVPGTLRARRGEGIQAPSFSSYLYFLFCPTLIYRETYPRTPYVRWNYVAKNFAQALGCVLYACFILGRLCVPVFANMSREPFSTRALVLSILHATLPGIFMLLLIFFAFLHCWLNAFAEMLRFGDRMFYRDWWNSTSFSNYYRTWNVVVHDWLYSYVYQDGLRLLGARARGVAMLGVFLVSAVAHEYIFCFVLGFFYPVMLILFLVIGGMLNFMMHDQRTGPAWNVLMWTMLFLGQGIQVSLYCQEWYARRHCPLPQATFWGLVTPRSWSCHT

[2] = target: T2, Sterol O-acyltransferase 1 (Homo sapiens, UniProt P35610); assay: Inhibition of human ACAT1 expressed in Sf9 insect cells using [14C]-oleoyl-CoA by scintillation counting analysis
T2 sequence (P35610 whole entry): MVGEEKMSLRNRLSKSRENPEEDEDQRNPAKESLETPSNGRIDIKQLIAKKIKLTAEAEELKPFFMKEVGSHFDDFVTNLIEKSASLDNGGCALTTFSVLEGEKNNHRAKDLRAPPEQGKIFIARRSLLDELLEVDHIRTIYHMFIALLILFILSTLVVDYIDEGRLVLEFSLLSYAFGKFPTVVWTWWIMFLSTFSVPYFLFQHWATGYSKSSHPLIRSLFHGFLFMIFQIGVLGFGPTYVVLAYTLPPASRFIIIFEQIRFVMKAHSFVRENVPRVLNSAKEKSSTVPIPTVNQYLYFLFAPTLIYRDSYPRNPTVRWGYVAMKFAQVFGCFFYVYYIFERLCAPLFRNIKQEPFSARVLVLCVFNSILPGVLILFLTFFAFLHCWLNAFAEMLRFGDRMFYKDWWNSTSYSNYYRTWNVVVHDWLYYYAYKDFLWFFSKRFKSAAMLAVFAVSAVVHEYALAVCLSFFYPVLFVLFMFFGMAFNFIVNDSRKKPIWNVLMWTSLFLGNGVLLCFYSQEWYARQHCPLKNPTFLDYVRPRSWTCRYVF

[3] = target: T3, Diacylglycerol O-acyltransferase 2 (Homo sapiens, UniProt Q96PD7); assay: Inhibition of human DGAT2 expressed in Sf9 insect cells using 1,2-dioleoyl-sn-glycerol and [14C]-palmitoyl-CoA substrate by scintillation counting analysis
T3 sequence (Q96PD7 whole entry): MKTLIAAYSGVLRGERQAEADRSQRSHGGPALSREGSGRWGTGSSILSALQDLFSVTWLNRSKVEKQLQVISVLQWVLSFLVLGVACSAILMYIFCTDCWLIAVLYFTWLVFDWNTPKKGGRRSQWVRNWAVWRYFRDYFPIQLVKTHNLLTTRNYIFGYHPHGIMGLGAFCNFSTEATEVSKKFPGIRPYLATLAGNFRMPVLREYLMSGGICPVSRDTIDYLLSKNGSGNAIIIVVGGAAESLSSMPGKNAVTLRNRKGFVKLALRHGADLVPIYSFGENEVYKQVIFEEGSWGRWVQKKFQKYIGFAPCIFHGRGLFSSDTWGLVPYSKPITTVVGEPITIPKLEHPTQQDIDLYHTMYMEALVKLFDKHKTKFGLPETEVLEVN

[4] = target: T4, Diacylglycerol O-acyltransferase 1 (Mus musculus, UniProt Q9Z2A7); assay: Inhibition of mouse DGAT1 expressed in Sf9 insect cells using 1,2-dioleoyl-sn-glycerol and [14C]-palmitoyl-CoA substrate by scintillation counting analysis
T4 sequence (Q9Z2A7 whole entry): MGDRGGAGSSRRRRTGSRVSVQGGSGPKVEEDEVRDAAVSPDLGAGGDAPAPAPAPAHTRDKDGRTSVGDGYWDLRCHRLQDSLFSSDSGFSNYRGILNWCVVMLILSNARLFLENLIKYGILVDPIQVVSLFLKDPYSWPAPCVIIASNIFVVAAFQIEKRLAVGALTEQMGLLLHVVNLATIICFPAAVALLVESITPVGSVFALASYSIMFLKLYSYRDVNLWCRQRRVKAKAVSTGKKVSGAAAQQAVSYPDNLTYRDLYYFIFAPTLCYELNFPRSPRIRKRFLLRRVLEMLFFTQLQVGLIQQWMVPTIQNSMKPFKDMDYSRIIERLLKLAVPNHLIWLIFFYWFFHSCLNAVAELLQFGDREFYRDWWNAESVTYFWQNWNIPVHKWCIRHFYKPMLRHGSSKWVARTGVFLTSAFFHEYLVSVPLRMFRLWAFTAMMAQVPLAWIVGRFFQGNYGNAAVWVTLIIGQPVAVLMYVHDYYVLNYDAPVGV

Cytochrome P450 2C9 = Cytochrome P450 2C9 (Homo sapiens, UniProt P11712); assay: Inhibition of CYP2C9 (unknown origin)
Cytochrome P450 2C9, sequence (P11712 whole entry): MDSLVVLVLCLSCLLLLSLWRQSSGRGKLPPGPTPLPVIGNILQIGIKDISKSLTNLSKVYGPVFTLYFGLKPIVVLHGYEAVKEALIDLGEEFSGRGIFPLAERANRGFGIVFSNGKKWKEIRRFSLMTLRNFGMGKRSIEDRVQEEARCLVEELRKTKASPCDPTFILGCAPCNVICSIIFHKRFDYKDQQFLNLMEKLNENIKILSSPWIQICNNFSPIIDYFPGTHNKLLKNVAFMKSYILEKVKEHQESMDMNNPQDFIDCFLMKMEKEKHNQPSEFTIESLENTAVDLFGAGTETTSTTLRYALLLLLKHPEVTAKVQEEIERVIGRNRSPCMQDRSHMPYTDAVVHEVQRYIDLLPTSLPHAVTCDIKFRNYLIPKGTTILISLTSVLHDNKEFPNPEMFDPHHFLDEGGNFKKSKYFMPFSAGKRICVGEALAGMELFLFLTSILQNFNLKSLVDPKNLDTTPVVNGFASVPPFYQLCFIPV

[5] = AUC in mouse at 10 mg/kg; assay type: ADME, organism-based; parameters: dose 10 mg/kg; conditions: plasma
[6] = Total AUC in rat; assay type: ADME, organism-based; parameters: time AUCmax; conditions: in vivo
Mus musculus [7] = assay: Reduction in triglycerides level in mouse at 3 mg/kg, po after 2 hrs by postprandial triglyceride assay; assay type: functional
[8] = Permeability in human Caco2 cells; assay type: ADME, cell-based; conditions: Caco-2, read-out: permeability
[9] = Tmax in rat; assay type: ADME, organism-based; conditions: in vivo
[10] = Cmax in rat; assay type: ADME, organism-based; conditions: in vivo
[11] = Solubility in plasma (unknown origin) at pH 7; assay type: ADME, cell-free
Mus musculus [12] = assay: Induction of weight loss in diet-induced obese C57BL/6J mouse assessed as decrease in body weight at 10 mg/kg, po qd measured during 11 day chronic study; assay type: functional; parameters: scale not given: the % may be the effect or the level left

Row | IC50 [1] [µM] | IC50 [2] [µM] | IC50 [3] [µM] | IC50 [4] [µM] | IC50 (Cytochrome P450 2C9) [µM] | AUC [5] [µM·h] | AUC [6] [µM·h] | Papp [8] [×10⁻⁶ cm/s] | Tmax [9] [h] | Cmax [10] [nM] | solubility [11] [µM] | Compound | inhibition in vivo at 3 mg/kg (Mus musculus [7]) [%] | Activity (Mus musculus [12]) [%]
1 | 2 | 10 | 10 | 0.018 | 14 | 34 | – | – | – | – | – | C[C@@H]1CN(C(=O)Nc2ccccc2)c2ccc(-c3ccc([C@H]4CC[C@H](CC(=O)O)CC4)cc3)cc2O1 | – | –
2 | – | – | – | 0.027 | – | – | 0.195 | 3.5 | 2 | 65 | 5 (≈ 2.46 µg/mL) | CCCCCCCNC(=O)N1CCOc2cc(-c3ccc([C@H]4CC[C@H](CC(=O)O)CC4)cc3)ccc21 | 48 | –
3 | – | – | – | – | – | – | – | – | – | – | – | O=C(Nc1ccc(OC(F)(F)F)cc1)Nc1ccc(-c2ccc(C(=O)[C@@H]3CCC[C@H]3C(=O)O)cc2)cc1F | – | 2
